Reference: patent US20230143752A1, “CANNABIDIOL NANODRUG FORMULATIONS AND METHODS FOR USE OF THE SAME” (priority 2020, published 2023)

Key:
[1] = tested on: CTLL-2 cytotoxic T lymphocytes; assay: In vitro screening platform for immunomodulation (CTLL-2); format: cell-based; conditions: CTLL-2, FIG. 4
Protocol: An in vitro screening platform for immunomodulation was used to evaluate nanoparticles for efficacy. CTLL-2 (ATCC®TIB-214™) are cytotoxic T lymphocytes that were purchased and cultured according to ATCC protocol. Once confluent, cells were seeded in a 12-well plate at a concentration of 55,000 cells/mL and treated, in triplicates, with the CBD nanoformulations described herein.
A similar experiment was carried out using CBD alone (not in nanoformulations).
In order to investigate options for improving CBD drug delivery in vitro, CBD was also formulated as a carrier-free nanoparticle and evaluated for efficacy.

[2] = tested on: mice with Auto-Immune Alopecia; assay: Hair regrowth in alopecia mice, topical treatment daily for 12 weeks; format: in vivo; conditions: for Number of animals per hair regrowth category, Category 0: 0=no hair growth; for Number of animals per hair regrowth category, Category 0 / Number of animals per hair regrowth category, Category 1 / Number of animals per hair regrowth category, Category 2 / Number of animals per hair regrowth category, Category 3 / Number of animals per hair regrowth category, Category 4: six animals per group, topical daily 12 weeks; for Number of animals per hair regrowth category, Category 1: 1=0-25% hair regrowth; for Number of animals per hair regrowth category, Category 2: 2=25-50% hair regrowth; for Number of animals per hair regrowth category, Category 3: 3=50-75% hair regrowth; for Number of animals per hair regrowth category, Category 4: 4=75-100% hair regrowth
Protocol: An animal study was carried out to determine the effect of a CBD nanoparticulate formulation comprising minoxidil as described herein on the induction of hair regrowth in alopecia mice after 12 weeks. In order to collect preliminary information on the reversal of Alopecia by CBD/minoxidil, a randomized pilot study on 24 animals was performed.
Eight- to ten-month-old mice with Auto-Immune Alopecia were randomized into four groups (six animals per group), receiving topical treatments daily for 12 weeks. Group 1 (Control group) received 0.1 ml of control solution applied topically over the ventral area daily for 12 weeks. Group 2 (CBD group) received 20 μg of CBD in 0.1 ml of control solution applied topically over the ventral area daily for 12 weeks. Group 3 (minoxidil) received 0.1 ml of 5% minoxidil solution applied topically over the ventral area daily for 12 weeks. Group 4 (CBD/minoxidil) received 20 μg of CBD and 5% minoxidil in 0.1 ml solution applied topically over the ventral area daily for 12 weeks.
Mice were sacrificed at the end point of a twelve week observation period, and skin biopsies were obtained. Skin biopsies were processed for histopathology.
Reported categories are as follows: 0=no hair growth, 1=0-25% hair regrowth, 2=25-50% hair regrowth, 3=50-75% hair regrowth, 4=75-100% hair regrowth.

[3] = alopecia mice, after 12 weeks, FIG. 6

Row | SMILES | reducing T-lymphocytes compared to controls [1] | Number of animals per hair regrowth category, Category 0 [2] | Number of animals per hair regrowth category, Category 1 [2] | Number of animals per hair regrowth category, Category 2 [2] | Number of animals per hair regrowth category, Category 3 [2] | Number of animals per hair regrowth category, Category 4 [2] | hair regrowth, summary ([2]; alopecia mice, 12 weeks topical) | effect observed in histopathology [2, 3] | histopathology finding in skin biopsies [2, 3]
1 | C=C(C)[C@@H]1CCC(C)=C[C@H]1c1c(O)cc(CCCCC)cc1O [CBD, Cannabidiol] | effective | 6 | 0 | 0 | 0 | 0 | none of the control (vehicle), CBD alone, or minoxidil alone mice showed significant hair regrowth | No significant effect | miniaturization
2 | Nc1cc(N2CCCCC2)nc(N)[n+]1[O-] [Minoxidil, minoxidil] | – | 6 | 0 | 0 | 0 | 0 | – | No significant effect | –
